These results are taken from patent US10035790B2, “RORγ modulators” (BRISTOL-MYERS SQUIBB COMPANY, priority 2012, dated 2018).

The target of the first experiment is T1, ligand binding domain of human RORγ (A262-S507) (Homo sapiens, UniProt P51449).
T1 construct: made in house; host or cells: E. coli
T1 sequence (P51449 262-507): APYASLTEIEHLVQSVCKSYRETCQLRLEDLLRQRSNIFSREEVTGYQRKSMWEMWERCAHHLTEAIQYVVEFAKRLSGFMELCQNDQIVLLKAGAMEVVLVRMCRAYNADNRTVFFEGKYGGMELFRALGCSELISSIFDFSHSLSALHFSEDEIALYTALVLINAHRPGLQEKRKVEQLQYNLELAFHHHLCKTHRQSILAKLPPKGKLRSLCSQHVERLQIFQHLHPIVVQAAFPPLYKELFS
As to the kind of experiment: General RORγ SPA binding assay (competition with [3H]25-hydroxycholesterol). To be noted: IC50, RORγ SPA binding assay, inhibition of [3H]25-hydroxycholesterol binding. An outline of the steps: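 Step one: compound meets 50 nM nickel-purified, His-tagged protein from E. coli for 15 min at room temperature (PBS, 0.5% fatty acid free BSA). Step two: radioligand is added for another 15 min. Step three: SPA beads are added for 30 min before scintillation reading and IC50 fitting.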
One may read the IC50 as the concentration that gives 50% inhibition. As to `CC(O)(COc1ccnc(C(F)(F)F)n1)c1cnc(N)nc1C1CCN(C(=O)Oc2ccccc2F)CC1` (centres unmarked) [Compound D49, 2-Fluorophenyl 4-[2-amino-5-(1-hydroxy-1-methyl-2-{[2-(trifluoromethyl)pyrimidin-4-yl]oxy}ethyl)pyrimidin-4-yl]piperidine-1-carboxylate], the IC50 came out at 7.2 nM.

The experiment is the same for the next values; noted with them: RORγ SPA binding assay, inhibition of [3H]25-hydroxycholesterol binding; read-out: IC50.
As to `Cc1cc(C)cc(CNC(=O)c2cnc(C)nc2C2CCN(C(=O)C(F)(F)c3c(F)cccc3F)CC2)c1` [Compound A116, 4-{1-[(2,6-Difluorophenyl)(difluoro)acetyl]piperidin-4-yl}-N-[(3,5-dimethylphenyl)methyl]-2-methylpyrimidine-5-carboxamide], the IC50 was determined as 37.1 nM. As for `Cc1nc(C2CCN(C(=O)Cc3c(F)cccc3F)CC2)c(C(=O)NCc2ccnc(C(F)(F)F)c2)c(=O)[nH]1` [Compound I5, 4-(1-(2-(2,6-difluorophenyl)acetyl)piperidin-4-yl)-2-methyl-6-oxo-N-((2-(trifluoromethyl)pyridin-4-yl)methyl)-1,6-dihydropyrimidine-5-carboxamide], the IC50 turned out to be 69.3 nM. With `CC(O)(COc1cccc(C(F)(F)F)n1)c1cnc(N)nc1C1CCN(C(=O)Nc2c(F)cccc2F)CC1` (centres unmarked) [Compound D27, 4-[2-Amino-5-(1-hydroxy-1-methyl-2-{[6-(trifluoromethyl)pyridin-2-yl]oxy}ethyl)pyrimidin-4-yl]-N-(2,6-difluorophenyl)piperidine-1-carboxamide], the IC50 turned out to be 3.6 nM.

Turning to `Cc1nc(C2CCN(C(=O)Cc3c(F)cccc3F)CC2)c(C(=O)NCc2cccc(C(F)(F)F)n2)c(=O)[nH]1` [Compound I1, 4-{1-[(2,6-Difluorophenyl)acetyl]piperidin-4-yl}-2-methyl-6-oxo-N-{[6-(trifluoromethyl)pyridin-2-yl]methyl}-1,6-dihydropyrimidine-5-carboxamide], the IC50 amounted to 40.3 nM. On the same count and under the same terms, in the case of `Cc1nc(C)c(-c2nnc(-c3ccnc(C(F)(F)F)n3)o2)c(C2CCN(C(=O)c3c(F)cccc3Cl)CC2)n1` [Compound C27, (2-chloro-6-fluorophenyl)(4-(2,6-dimethyl-5-(5-(2-(trifluoromethyl)pyrimidin-4-yl)-1,3,4-oxadiazol-2-yl)pyrimidin-4-yl)piperidin-1-yl)methanone] it was 461 nM; in that of `Cc1ncc(C(O)(CNC(=O)CCO)COc2cccc(C(F)(F)F)n2)c(C2CCN(C(=O)Nc3c(F)cccc3F)CC2)n1` (centres unmarked) [Compound N42, N-(2,6-Difluorophenyl)-4-(5-{1-hydroxy-2-[(3-hydroxypropanoyl)amino]-1-({[6-(trifluoromethyl)pyridin-2-yl]oxy}methyl)ethyl}-2-methylpyrimidin-4-yl)piperidine-1-carboxamide], 183 nM; in that of `C/C(=N\Oc1cccc(C(F)(F)F)c1)c1cnc(C)nc1C1CCN(C(=O)Cc2c(F)cccc2F)CC1` [Compound B3, (E)-2-(2,6-Difluorophenyl)-1-(4-(2-methyl-5-(1-(3-(trifluoromethyl)phenoxyimino)ethyl)pyrimidin-4-yl)piperidin-1-yl)ethanone], 3.1 nM.

For the molecule `Cc1ncc(C(C)(O)CNc2nccc(C(F)(F)F)n2)c(C2CCN(C(=O)Cc3c(F)cccc3F)CC2)n1` (centres unmarked) [Compound D23, 2-(4-{1-[(2,6-Difluorophenyl)acetyl]piperidin-4-yl}-2-methylpyrimidin-5-yl)-1-{[4-(trifluoromethyl)pyrimidin-2-yl]amino}propan-2-ol], the IC50 turned out to be 18.5 nM.

In the case of `COc1ccccc1CC(=O)N1CCC(c2nc(C)ncc2C(=O)NCc2cc(C)cc(C)c2)CC1` [Compound A10, N-(3,5-dimethylbenzyl)-4-(1-(2-(2-methoxyphenyl)acetyl)piperidin-4-yl)-2-methylpyrimidine-5-carboxamide], the IC50 is 33.1 nM. Still for that read-out and setting: in the case of `Cc1cc(C)cc(CNC(=O)c2cnc(C)nc2C2CCN(C(=O)C(C)(C)c3ccccc3)CC2)c1` [Compound A35, N-(3,5-dimethylbenzyl)-2-methyl-4-(1-(2-methyl-2-phenylpropanoyl)piperidin-4-yl)pyrimidine-5-carboxamide] it was 2970 nM; in that of `CCC/C(=N\Oc1cccc(C(F)(F)F)c1)c1c(C)nc(C)nc1C1CCN(C(=O)Cc2c(F)cccc2F)CC1` [Compound B48, (1E)-1-(4-{1-[(2,6-difluorophenyl)acetyl]piperidin-4-yl}-2,6-dimethylpyrimidin-5-yl)butan-1-one O-[3-(trifluoromethyl)phenyl]oxime], 241 nM; in that of `CSc1ncc(C(C)(O)COc2ccnc(C(F)(F)F)n2)c(C2CCN(C(=O)Nc3c(F)cccc3F)CC2)n1` (centres unmarked) [Compound D28, N-(2,6-Difluorophenyl)-4-[5-(1-hydroxy-1-methyl-2-{[2-(trifluoromethyl)pyrimidin-4-yl]oxy}ethyl)-2-(methylthio)pyrimidin-4-yl]piperidine-1-carboxamide], 14.7 nM. For the molecule `Cc1nc(C)c(-c2nnc(-c3ccnc(C(F)(F)F)n3)o2)c(C2CCN(C(=O)Cc3ccccc3F)CC2)n1` [Compound C25, 1-(4-(2,6-dimethyl-5-(5-(2-(trifluoromethyl)pyrimidin-4-yl)-1,3,4-oxadiazol-2-yl)pyrimidin-4-yl)piperidin-1-yl)-2-(2-fluorophenyl)ethanone], the IC50 was 23.1 nM. On the same count and under the same terms, in the case of `COc1ncc(C(C)(O)COc2ccnc(C(F)(F)F)n2)c(C2CCN(C(=O)Nc3c(F)cccc3F)CC2)n1` (centres unmarked) [Compound D44, N-(2,6-Difluorophenyl)-4-[5-(1-hydroxy-1-methyl-2-{[2-(trifluoromethyl)pyrimidin-4-yl]oxy}ethyl)-2-(methyloxy)pyrimidin-4-yl]piperidine-1-carboxamide] it was 4.6 nM; in that of `CN(C)c1ncc(C(=O)NCc2cccc(Cl)c2)c(C2CCN(C(=O)Cc3c(F)cccc3F)CC2)n1` [Compound A88, N-(3-chlorobenzl)-4-(1-(2-(2,6-difluorophenyl)acetyl)piperidin-4-yl)-2-(dimethylamino)pyrimidine-5-carboxamide], 5.4 nM; in that of `Cc1ncc(/C(=N/Oc2ccnc(C(F)(F)F)c2)C(F)F)c(C2CCN(C(=O)Cc3c(F)cccc3F)CC2)n1` [Compound B32, (1Z)-1-(4-{1-[(2,6-Difluorophenyl)acetyl]piperidin-4-yl}-2-methylpyrimidin-5-yl)-2,2-difluoroethanone O-[2-(trifluoromethyl)pyridin-4-yl]oxime], 15.3 nM. Same read-out and setting: in the case of `Nc1ncc(C(N)COc2cccc(C(F)(F)F)n2)c(C2CCN(C(=O)Oc3ccccc3F)CC2)n1` (centres unmarked) [Compound N29, 2-Fluorophenyl 4-[2-amino-5-(1-amino-2-{[6-(trifluoromethyl)pyridin-2-yl]oxy}ethyl)pyrimidin-4-yl]piperidine-1-carboxylate] it was 10000 nM; in that of `Cc1nc(C)c(-c2nnc(-c3ccnc(C(F)(F)F)n3)o2)c(C2CCN(C(=O)C(C)c3c(F)cccc3F)CC2)n1` (centres unmarked) [Compound C26, 2-(2,6-difluorophenyl)-1-(4-(2,6-dimethyl-5-(5-(2-(trifluoromethyl)pyrimidin-4-yl)-1,3,4-oxadiazol-2-yl)pyrimidin-4-yl)piperidin-1-yl)propan-1-one], 235 nM; in that of `COc1nc(C)nc(C2CCN(C(=O)Cc3c(F)cccc3F)CC2)c1C(=O)NCc1cccc(Cl)c1` [Compound A111, N-(3-Chlorobenzyl)-4-(1-(2-(2,6-difluorophenyl)acetyl)piperidin-4-yl)-6-methoxy-2-methylpyrimidine-5-carboxamide], 9.8 nM.

On to `Cc1ncc(C(C)(C)CNc2cccc(C(F)(F)F)n2)c(C2CCN(C(=O)Cc3c(F)cccc3F)CC2)n1` [Compound F3, N-[2-(4-{1-[(2,6-difluorophenyl)acetyl]piperidin-4-yl}-2-methylpyrimidin-5-yl)-2-methylpropyl]-6-(trifluoromethyl)pyridin-2-amine], for which the IC50 came to 3.3 nM. Still for that read-out and setting: in the case of `Cc1ncc(C(=O)NCCOc2ccccc2)c(C2CCN(C(=O)Cc3c(F)cccc3F)CC2)n1` [Compound A20, 4-(1-(2-(2,6-difluorophenyl)acetyl)piperidin-4-yl)-2-methyl-N-(2-phenoxyethyl)pyrimidine-5-carboxamide] it was 158 nM. Still for that read-out and setting: in the case of `Cc1nc(C)c(-c2nnc(-c3ccc(Cl)nc3)o2)c(C2CCN(C(=O)Cc3c(F)cccc3F)CC2)n1` [Compound C23, 1-(4-(5-(5-(6-chloropyridin-3-yl)-1,3,4-oxadiazol-2-yl)-2,6-dimethylpyrimidin-4-yl)piperidin-1-yl)-2-(2,6-difluorophenyl)ethanone] it was 5290 nM; in that of `COc1ncc(C(=O)NCc2ccc(Cl)c(Cl)c2)c(C2CCN(C(=O)Cc3c(F)cccc3F)CC2)n1` [Compound A86, N-(3,4-dichlorobenzyl)-4-(1-(2-(2,6-difluorophenyl)acetyl)piperidin-4-yl)-2-methoxypyrimidine-5-carboxamide], 7 nM.

Consider `Cc1ncc(C(=O)NCc2cccc(Cl)c2C)c(C2CCN(C(=O)Cc3c(F)cccc3F)CC2)n1` [Compound A63, N-(3-chloro-2-methylbenzyl)-4-(1-(2-(2,6-difluorophenyl)acetyl)piperidin-4-yl)-2-methylpyrimidine-5-carboxamide], for which the IC50 was 63 nM.

Consider `Cc1cc(C)cc(CNC(=O)c2cnc(C)nc2C2CCN(C(=O)c3ccccc3Cl)CC2)c1` [Compound A24, 4-(1-(2-chlorobenzoyl)piperidin-4-yl)-N-(3,5-dimethylbenzyl)-2-methylpyrimidine-5-carboxamide], for which the IC50 was found to be 215 nM.
